Laboratory results: ChEMBL document CHEMBL1201862, “PubChem BioAssay data set” (2004)
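Cells were grown in 96-well plates and exposed to each compound for 48 hours at five concentrations; endpoints were interpolated linearly between bracketing concentrations, or set to the highest concentration if not reached. At the GI50, growth is halved.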 Active and inactive are the calls of the source. Rule as the data show it: active = GI50 up to about 1.1 µM and inactive = higher.

Tests used:
Assay in all cases: inhibition of tumour cell growth, NCI panel, 48 h
[1] = test system: M14
[2] = test system: KM12
[3] = test system: SF-268
[4] = test system: HCT-15
[5] = test system: HOP-92
[6] = test system: CAKI-1
[7] = test system: MDA-N
[8] = test system: TK-10
[9] = test system: PC-3
[10] = test system: SF-295
[11] = test system: SR
[12] = test system: BT-549
[13] = test system: HT-29
[14] = test system: SK-MEL-2
[15] = test system: A549
[16] = test system: Hs-578T
[17] = test system: MDA-MB-231
[18] = test system: OVCAR-5
[19] = test system: SF-539
[20] = test system: HL-60

SMILES	GI50 [1]	GI50 [2]	GI50 [3]	GI50 [4]	GI50 [5]	GI50 [6]	GI50 [7]	GI50 [8]	GI50 [9]	GI50 [10]	GI50 [11]	GI50 [12]	GI50 [13]	GI50 [14]	GI50 [15]	GI50 [16]	GI50 [17]	GI50 [18]	GI50 [19]	GI50 [20]
Cc1cc(NC[C@H](O)[C@H](O)[C@H](O)CO)c(Sc2cc(=O)[nH]c(=O)[nH]2)cc1C	> 62.5 µM (inactive)	> 62.5 µM (inactive)	> 62.5 µM (inactive)	> 62.5 µM	> 62.5 µM (inactive)	> 62.5 µM (inactive)	> 62.5 µM (inactive)	> 62.5 µM (inactive)	> 62.5 µM (inactive)	> 62.5 µM (inactive)	> 62.5 µM (inactive)	> 62.5 µM (inactive)	> 62.5 µM (inactive)	> 62.5 µM (inactive)	> 62.5 µM (inactive)	> 62.5 µM (inactive)	> 62.5 µM (inactive)	> 62.5 µM (inactive)		
O=S(=O)(Cc1cnc(O)nc1O)Cc1cnc(O)nc1O	> 100 µM (inactive)	> 100 µM (inactive)	> 100 µM (inactive)	> 100 µM	> 100 µM (inactive)	> 100 µM (inactive)	> 100 µM (inactive)	> 100 µM (inactive)	> 100 µM (inactive)	> 100 µM (inactive)	37.8 µM (inactive)	> 100 µM (inactive)	> 100 µM (inactive)	> 100 µM (inactive)	> 100 µM (inactive)	> 100 µM (inactive)	> 100 µM (inactive)	> 100 µM (inactive)	> 100 µM (inactive)	
CC(NC(=O)c1c(O)[nH]c(=S)[nH]c1=O)c1ccc([N+](=O)[O-])cc1 (stereo not given)	> 100 µM (inactive)	47.6 µM (inactive)	52.8 µM (inactive)	> 100 µM	39.7 µM (inactive)	> 100 µM (inactive)	> 100 µM (inactive)	> 100 µM (inactive)	40.7 µM (inactive)	> 100 µM (inactive)		> 100 µM (inactive)	> 100 µM (inactive)	32.5 µM (inactive)	> 100 µM (inactive)	> 100 µM (inactive)	60.7 µM (inactive)	> 100 µM (inactive)	82.2 µM (inactive)	> 100 µM (inactive)
CC1(C)CC(=O)C2=C(C1)NC1=C(C(=O)CC(C)(C)C1)C2c1ccc([N+](=O)[O-])cc1	> 100 µM (inactive)	> 100 µM (inactive)	> 100 µM (inactive)	> 100 µM	> 100 µM (inactive)	> 100 µM (inactive)	> 100 µM (inactive)	> 100 µM (inactive)	> 100 µM (inactive)	> 100 µM (inactive)		> 100 µM (inactive)	> 100 µM (inactive)	> 100 µM (inactive)	> 100 µM (inactive)	> 100 µM (inactive)	> 100 µM (inactive)	> 100 µM (inactive)	> 100 µM (inactive)	> 100 µM (inactive)
CC(C)(C)OC(=O)N(O)[C@@H]1C=C[C@H](n2cnc3c(N)ncnc32)C1	> 100 µM (inactive)	> 100 µM (inactive)	> 100 µM (inactive)	> 100 µM	> 100 µM (inactive)	> 100 µM (inactive)	> 100 µM (inactive)	> 100 µM (inactive)	> 100 µM (inactive)	> 100 µM (inactive)	> 100 µM (inactive)	> 100 µM (inactive)		> 100 µM (inactive)	> 100 µM (inactive)	92.3 µM (inactive)	> 100 µM (inactive)	> 100 µM (inactive)	> 100 µM (inactive)	
C/C=C1/CN2CCC34C(=C(C(=O)OC)C1CC23)Nc1ccc(O)cc14 (stereo not given)	> 100 µM (inactive)	> 100 µM (inactive)	61.8 µM (inactive)	> 100 µM	> 100 µM (inactive)	> 100 µM (inactive)	> 100 µM (inactive)	> 100 µM (inactive)	> 100 µM (inactive)	77.8 µM (inactive)		> 100 µM (inactive)	> 100 µM (inactive)	> 100 µM (inactive)	> 100 µM (inactive)	34.3 µM (inactive)	> 100 µM (inactive)	> 100 µM (inactive)	> 100 µM (inactive)	> 100 µM (inactive)
CCOC(=O)c1ccc(C(=O)/C(C#N)=C2\CCCN2C)[nH]1	> 100 µM (inactive)	> 100 µM (inactive)	> 100 µM (inactive)	> 100 µM		> 100 µM (inactive)	> 100 µM (inactive)	> 100 µM (inactive)	> 100 µM (inactive)	> 100 µM (inactive)	> 100 µM (inactive)	> 100 µM (inactive)	> 100 µM (inactive)	> 100 µM (inactive)	> 100 µM (inactive)	> 100 µM (inactive)	> 100 µM (inactive)	> 100 µM (inactive)		> 100 µM (inactive)
